Source: patent US20210038563A1, “NEW SPIRONOLACTONE FORMULATIONS AND THEIR USE” (Apidel SA, priority 2018, published 2021)

How the values were obtained:
[1] = tested on: dexamethasone-induced delayed corneal wound healing; test: Corneal re-epithelialization evaluation (fluorescein test) after corneal de-epithelialization; format: in vivo, New Zealand white rabbit; details: Day 4; mean ± SD
Description: Fifty male albino New Zealand rabbits weighing approximately 2.3-3.0 kg were included for this study (Iris Pharma, France). Animals were housed individually in standard cages, under identical environmental conditions. The temperature was kept at 15-21° C. and the relative humidity was >45%. Rooms were continuously ventilated (>15 air volumes per hour). Temperature and relative humidity were continuously controlled and recorded. Animals were routinely exposed (in-cage) to a 10-200 1× light in a 12-hour light/dark cycle (from 7:00 a.m. to 7:00 p.m.). Animals had enrichment and free access to food (150 g/day) and were allowed water ad libitum. All animals were healthy and free of clinically observable ocular abnormalities throughout the study. […]
The animals were anesthetized by an intramuscular injection of a ketamine-xylazine mixture. […] De-epithelialization was monitored by fluorescein staining. […]
The size of the corneal wound was evaluated using the fluorescein test immediately after ocular debridement and once a day before the first instillation of the day. A baseline was recorded before the de-epithelialization. […] Images of the corneal lesion (area stained by fluorescein) were taken using a CCD camera and analyzed using image J software. […]

[2] = [26, 27]; cited from earlier work
[3] = tested on: MR; details: Corvol et al. [19]; cited from earlier work
[4] = molecular target: mineralocorticoid receptor; details: Sutanto et al. [20]; read-out: half maximal inhibitory concentrations (IC50); cited from earlier work

C[C@@H]1C[C@H]2[C@@H]3CCC4=CC(=O)C=C[C@]4(C)[C@@]3(F)[C@@H](O)C[C@]2(C)[C@@]1(O)C(=O)CO [DXM, Dexamethasone]
Mean percentage of re-epithelialization [1]: 84.6±13.9%

CS[C@@H]1CC2=CC(=O)CC[C@]2(C)[C@H]2CC[C@@]3(C)[C@@H](CC[C@@]34CCC(=O)O4)[C@H]12 [TMSPL, 7α-thiomethylspironolactone]
plasma half-life [2]: 13.8 h

C[C@]12CCC(=O)C=C1C=C[C@@H]1[C@@H]2CC[C@@]2(C)[C@H]1CC[C@@]21CCC(=O)O1 [CAN, Canrenone]
Affinity for the MR, fold lower as compared to SPL [3]: 10 fold

CC(=O)S[C@@H]1CC2=CC(=O)CC[C@]2(C)[C@H]2CC[C@@]3(C)[C@@H](CC[C@@]34CCC(=O)O4)[C@H]12 [SPL, 7α-Acetylthio-17α-hydroxy-3-oxopregn-4-ene-21-carboxylic acid γ-lactone]
plasma half-life [2]: 1.4 h

C[C@]12CCC(=O)C=C1C=C[C@@H]1[C@@H]2CC[C@@]2(C)[C@H]1CC[C@@]2(O)CCC(=O)O [CANK, potassium canrenoate]
Affinity for the MR [3]: very low affinity
IC50 [4]: > 1000 nM
